Source: patent US4755522A, “Derivatives of N-[3-(2,4,6-trimethoxybenzoyl)propyl]piperidine, and their use in therapeutics” (priority 1986, dated 1988)
Where “and” joins values, the source holds several entries; their conditions need not be identical. Identical values can stand only once. Entries after “also recorded” stand apart in the source; their conditions may differ. Like-named read-outs stand apart in the source and are kept apart here.

Experiments:
[1] = tested on: ventricular fibrillation (V.F.) by inhalation of chloroform; assay: Lawson's test in mice (ventricular fibrillation by inhalation of chloroform); type: in vivo
Text: (c) Anti-arrhythmic action in the mouse. Research on the anti-arrhythmic activity by intraperitoneal route on Lawson's test in mice (ventricular fibrillation (V.F.) by inhalation of chloroform, all or nothing response) has given the following results (10 mice per dose).

[2] = tested on: arrhythmias caused by adrenaline; assay: Arrhythmias caused by adrenaline I.V., 4 days after coronary ligature (dog); type: in vivo
Method: 4 days after the ligature of the coronary, this same dog received injections I.V. of 5 mcg/kg of adrenaline which caused arrhythmias. The number of ectopic beats caused by adrenaline reduces starting from the dose of 5 mg/kg I.V. while the percentage of ectopic beats referred to the total cardiac frequency is 79% in comparison with 100% in the control and 46% 10 minutes after the dose of 10 mg/kg (64% after 40 minutes, 88% after 90 minutes).

ectopic heart-beats = assay: Ectopic heart-beats in dogs with coronary artery ligature a few weeks earlier; type: in vivo, dog; conditions: I.D.; for minimal effective dose: Canis lupus familiaris, intraduodenal, read-out: dose re-establishing a normal rhythm
Method: (§1) 3 dogs (average weight, 12 kg) anaesthetized with nembutal, receive the compound by intra-duodenal route at successive doses of 0.1-0.5-2.5-10 and 20 mg/kg.
Two of these three dogs having undergone a ligature of a coronary artery a few weeks earlier still presented numerous ectopic heart-beats.

cardio-vascular system = assay: Action on the cardio-vascular system in the anaesthetized dog; type: in vivo
Method: (b) Action on the cardio-vascular system (in the dog).
as §1
The arterial pressure, the cardiac rate, the femoral arterial flow, the vertebral arterial flow, the rectal and skin temperatures are all measured. The coloration of the skin is observed.
(§2) 3 dogs (average weight, 14 kg) anaesthetized with nembutal, received the CRL 41,390 by intra-duodenal route, at successive doses of 0.1-0.5-1-2.5-5-10-20 mg/kg, then a supplementary dose of 10 mg/kg I.V.
The arterial pressure, the cardiac frequency, the femoral arterial flow, the vertebral arterial flow, the rectal and cutaneous temperatures, were measured. The coloration of the skin was observed.

mice = type: in vivo; conditions: 260 mg/kg I.P. (footnote *)
cardiac arrhythmias = assay: Treatment of cardiac arrhythmias in man; type: in vivo; conditions: capsules or tablets 200 mg, 3 to 4 per day
Method: The compound of example 1 in the form of capsules or tablets with doses of 200 mg, 3 to 4 per day, has given good results in the treatment of cardiac arrhythmias in man.

awakened dog = assay: Toxic effects in the awakened dog, I.V. cumulative; type: in vivo
[3] = tested on: arrhythmias with K-strophanthin; assay: Arrhythmias with K-strophanthin in the guinea-pig; type: in vivo; conditions: 10 mg/kg I.V.
Method: (§3) The compound was administered by intravenous route at a dose of 10 mg/kg to a series of 10 albino guinea-pigs of 380 to 495 g, anaesthetized with urethane.
(§4) 5 minutes later, they receive an I.V. perfusion of the product causing arrhythmia at a dosage of 0.09 mg/min. in a volume of 0.6 ml/min.
(§5) The compound is compared with quinidine at a dose of 5 mg/kg I>V> and with a series of controls.
(§6) Lots are drawn for the treatments.
A--Action on arrhythmias with K-strophanthin.

[4] = tested on: arrhythmias with aconitine; assay: Arrhythmias with aconitine in the guinea-pig; type: in vivo
Method: as §3, §4, §5, §6
B--Action on arrhythmias with aconitine.

[5] = tested on: left descending coronary artery ligature; assay: Dog with left descending coronary artery ligatured 24 hours earlier, I.V.; type: in vivo
Method: In a dog of which the left descending coronary artery had been ligatured 24 hours earlier, the compound was administered by intravenous route at increasing doses: 0.5-1-2.5-5-10 mg/kg. every 30 minutes.

[6] = tested on: arrhythmias caused by injection of adrenaline; assay: Arrhythmias caused by adrenaline + petroleum ether (dog); type: in vivo; conditions: 39.1 mg/kg I.D.
Method: In the third dog, arrhythmias were caused by injection of adrenaline (10 mcg/kg), preceded by an intra-trachealinjection of petroleum ether (0.1 ml/kg before and after administration of the 39.1 mg/kg (in cumulative doses) of the compound. On the E.C.G., the number of beats of sinusoidal origin and the number of ectopic beats per minute are counted which follow the injection of adrenaline. |Dose of compound | Number of beats in 1 minute |mg/kg I.D. ectopic sinusoidal

noradrenaline = assay: Hypertension with noradrenaline after the compound (dog); type: in vivo
Method: as §1, §2
Hypertension to noradrenaline is not modified: at 2 mcg/kg of noradrenaline, the systolic arterial pressure passes, after administration of the product, from 160 to 290 mmHg/161 to 289 mmHg in the control.

isoprenaline = assay: Effects of isoprenaline on arterial pressure and cardiac rate after the compound (dog); type: in vivo
Method: as §2

## COc1cc(OC)c(C(=O)CCCN2CCCC(CO)C2)c(OC)c1.Cl (stereo not shown) [CRL 41,391, N-[3-(2,4,6-trimethoxybenzoyl)propyl]-3-piperidinemethanol hydrochloride]
[1]; 5 mg/kg I.P.
  % of mice not presenting V.F.: 22%
[1]; 10 mg/kg I.P.
  % of mice not presenting V.F.: 50%
[1]; 20 mg/kg I.P.
  % of mice not presenting V.F.: 70%
[2]; 5 mg/kg I.V., control 100%
  ectopic beats referred to the total cardiac frequency: 79%
[2]; 10 mg/kg I.V., after 40 minutes
  ectopic beats referred to the total cardiac frequency: 64%
[2]; 10 mg/kg I.V., after 90 minutes
  ectopic beats referred to the total cardiac frequency: 88%
[2]; 10 minutes after 10 mg/kg I.V.
  ectopic beats referred to the total cardiac frequency: 46%
[2]; Canis lupus familiaris, iv, I.V., adrenaline 5 mcg/kg I.V., read-out: dose from which ectopic beats caused by adrenaline are reduced
  minimal effective dose: 5 mg/kg
Ectopic heart-beats; one dog
  minimal effective dose: 2.5 mg/kg
Ectopic heart-beats; the other dog
  minimal effective dose: 10 mg/kg
Ectopic heart-beats; two dogs
  normal rhythm: re-established a normal rhythm in these two dogs
cardio-vascular system; 20 mg/kg I.D.
  effect on heart rate: slightly reduces the heart rate
cardio-vascular system; Canis lupus familiaris, intraduodenal, I.D., read-out: dose from which femoral flow increases
  minimal effective dose: 5 mg/kg
cardio-vascular system; I.D.
  effect on rectal and cutaneous temperatures: does not modify the rectal and cutaneous temperatures
  effect on vertebral flow: reduces the vertebral flow
cardio-vascular system; I.D., starting at 5 mg/kg
  effect on femoral flow: increases the femoral flow
cardio-vascular system; intra-duodenal, successive doses to 20 mg/kg, nembutal
  effect on the arterial pressure: no effect on the arterial pressure
mice
  convulsions: convulsions
Cardiac arrhythmias
  treatment of cardiac arrhythmias in man: good results
Awakened dog; 70 mg/kg I.V. total
  nictitating membrane: released for 10 minutes
Awakened dog; I.V., 5 minutes after the injection, hydrochloride
  vomiting, cumulative dose: 40 mg/kg and 70 mg/kg
Awakened dog; I.V., total 70 mg/kg
  somnolence: a certain somnolence was observed
[3]
  appearance of incidents in the E.C.G. due to K-strophanthin: significantly delays
  cardiac frequency: does not significantly modify the cardiac frequency
[4]; 10 mg/kg I.V.
  increase of cardiac frequency (average): 12 beats/minute
[4]; 10 mg/kg I.V. vs quinidine 5 mg/kg
  action on aconitine compared with quinidine: greater than that observed after pre-treatment with 5 mg/kg of quinidine
[4]; 10 mg/kg I.V., anaesthetized guinea-pig
  cardiac frequency (conclusion, K-strophanthin and aconitine): without modifying or with very moderate increase in the cardiac frequency
[4]; 10 mg/kg I.V., hydrochloride
  appearance of incidents in the E.C.G. due to aconitine: significantly retards; also recorded: significantly delays
[5]; 2.5 mg/kg I.V.
  sinusoidal beats: ≥ 5%
[5]; 5 mg/kg I.V., 5 minutes after injection
  sinusoidal beats: 19%
[5]; 10 mg/kg I.V.
  vomitting: brief vomitting
[5]; 20 minutes after the injection
  sinusoidal beats: 41%
[5]; 40 minutes
  sinusoidal beats: 25%
[5]; 60 minutes
  sinusoidal beats: 15%
[5]; Canis lupus familiaris, iv, I.V., zero sinusoidal beats in the control, read-out: dose from which sinusoidal beats increase
  minimal effective dose: 2.5 mg/kg
[5]; after 10 mg/kg I.V.
  change of cardiac frequency: -25%
[5]; after 10 mg/kg I.V., from 231
  cardiac frequency: 174 beats/minute
[6]
  number of ectopic beats caused by adrenaline+petroleum ether: strongly reduces the number of ectopic beats
[6]; 35 at dose 0
  Number of beats in 1 minute, sinusoidal: 173
[6]; 163 at dose 0
  Number of beats in 1 minute, ectopic: 26
noradrenaline; 39.1 mg/kg I.D. cumulative, control 153
  systolic pressure after the product, before noradrenaline: 149 mmHg
noradrenaline; 2 mcg/kg noradrenaline I.V., 39.1 mg/kg I.D. cumulative, control 271
  systolic pressure after the product, with noradrenaline: 256 mmHg
noradrenaline; after 39.1 mg/kg I.D. cumulative
  hypertension with noradrenaline: slightly reduced
isoprenaline; 39.1 mg/kg I.D. cumulative, control 120
  diastolic arterial pressure after the product, before isoprenaline: 107 mmHg
isoprenaline; 39.1 mg/kg I.D. cumulative, control 157
  cardiac rate after the product, before isoprenaline: 160 beats/minute
isoprenaline; 10 mcg/kg isoprenaline I.V., 39.1 mg/kg I.D. cumulative, control 37
  diastolic arterial pressure after the product, with isoprenaline: 36 mmHg
isoprenaline; 10 mcg/kg isoprenaline I.V., 39.1 mg/kg I.D. cumulative, control 83
  change of diastolic arterial pressure with isoprenaline: 71 mmHg
isoprenaline; 10 mcg/kg isoprenaline I.V., 39.1 mg/kg I.D. cumulative, control 273
  cardiac rate after the product, with isoprenaline: 255 beats/minute
isoprenaline; after accumulated dose 39.1 mg/kg I.D.
  effects of isoprenaline on arterial pressure and cardiac rate: very slightly reduced
